# Assay results as given in ChEMBL document CHEMBL4145553, “Design, synthesis, and biological evaluation of novel amide and hydrazide based thioether analogs targeting Histone deacteylase (HDAC) enzymes” (Eur J Med Chem, 2018).
# Legend:
# Type in all cases: functional
# SW-620 = assay: Growth inhibition of human SW620 cells assessed as cell growth at 10^-7 M incubated for 48 hrs by sulforhodamine B assay relative to control; details: SW-620, 48 h, read-out: Activity
# IGROV-1 [1] = assay: Growth inhibition of human IGROV1 cells assessed as cell growth at 10^-8 M incubated for 48 hrs by sulforhodamine B assay relative to control; details: IGROV-1, 48 h, read-out: Activity
# OVCAR-4 = assay: Growth inhibition of human OVCAR4 cells assessed as cell growth at 10^-6 M incubated for 48 hrs by sulforhodamine B assay relative to control; details: OVCAR-4, 48 h, read-out: Activity
# SNB-19 = assay: Growth inhibition of human SNB19 cells incubated for 48 hrs by sulforhodamine B assay; details: SNB-19, 48 h
# 786-0 = assay: Growth inhibition of human 786-0 cells incubated for 48 hrs by sulforhodamine B assay; details: 786-0, 48 h
# RPMI-8226 = assay: Growth inhibition of human RPMI8226 cells assessed as cell growth at 10^-5 M incubated for 48 hrs by sulforhodamine B assay relative to control; details: RPMI-8226, 48 h, read-out: Activity
# M14 = assay: Growth inhibition of human M14 cells assessed as cell growth at 10^-8 M incubated for 48 hrs by sulforhodamine B assay relative to control; details: M14, 48 h, read-out: Activity
# UACC-62 [2] = assay: Growth inhibition of human UACC62 cells incubated for 48 hrs by sulforhodamine B assay; details: UACC-62, 48 h
# UACC-62 [3] = assay: Growth inhibition of human UACC62 cells assessed as cell growth at 10^-7 M incubated for 48 hrs by sulforhodamine B assay relative to control; details: UACC-62, 48 h, read-out: Activity
# NCI-H23 = assay: Growth inhibition of human NCI-H23 cells assessed as cell growth at 10^-8 M incubated for 48 hrs by sulforhodamine B assay relative to control; details: NCI-H23, 48 h, read-out: Activity
# OVCAR-3 [4] = assay: Growth inhibition of human OVCAR3 cells assessed as cell growth at 10^-5 M incubated for 48 hrs by sulforhodamine B assay relative to control; details: OVCAR-3, 48 h, read-out: Activity
# HL-60(TB) [5] = assay: Growth inhibition of human HL-60(TB) cells incubated for 48 hrs by sulforhodamine B assay; details: HL-60, 48 h
# HL-60 = assay: Cell cycle arrest in human HL60 cells assessed as accumulation at G2-phase by propidium iodide staining based flow cytometry (reference value: 6.58%)
# OVCAR-3 [6] = assay: Growth inhibition of human OVCAR3 cells incubated for 48 hrs by sulforhodamine B assay; details: OVCAR-3, 48 h
# ACHN = assay: Growth inhibition of human ACHN cells assessed as cell growth at 10^-6 M incubated for 48 hrs by sulforhodamine B assay relative to control; details: read-out: Activity
# SF-268 = assay: Growth inhibition of human SF268 cells assessed as cell growth at 10^-4 M incubated for 48 hrs by sulforhodamine B assay relative to control; details: SF-268, 48 h, read-out: Activity
# BT-549 = assay: Growth inhibition of human BT549 cells assessed as cell growth at 10^-4 M incubated for 48 hrs by sulforhodamine B assay relative to control; details: BT-549, 48 h, read-out: Activity
# A498 = assay: Growth inhibition of human A498 cells assessed as cell growth at 10^-5 M incubated for 48 hrs by sulforhodamine B assay relative to control; details: A498, 48 h, read-out: Activity
# SNB-75 = assay: Growth inhibition of human SNB75 cells assessed as cell growth at 10^-8 M incubated for 48 hrs by sulforhodamine B assay relative to control; details: SNB-75, 48 h, read-out: Activity
# MDA-MB-435 = assay: Induction of apoptosis in human MDA-MB-435 cells assessed as necrotic cells by propidium iodide/Annexin V staining based flow cytometry (reference value: 0.24%)
# HL-60(TB) [7] = assay: Growth inhibition of human HL-60(TB) cells assessed as cell growth at 10^-7 M incubated for 48 hrs by sulforhodamine B assay relative to control; details: HL-60, 48 h, read-out: Activity
# MDA-MB-231 = assay: Growth inhibition of human MDA-MB-231 cells incubated for 48 hrs by sulforhodamine B assay; details: MDA-MB-231, 48 h
# K562 [8] = assay: Growth inhibition of human K562 cells incubated for 48 hrs by sulforhodamine B assay; details: K562, 48 h
# K562 [9] = assay: Growth inhibition of human K562 cells assessed as cell growth at 10^-8 M incubated for 48 hrs by sulforhodamine B assay relative to control; details: K562, 48 h, read-out: Activity
# UO-31 = assay: Growth inhibition of human UO31 cells assessed as cell growth at 10^-4 M incubated for 48 hrs by sulforhodamine B assay relative to control; details: UO-31, 48 h, read-out: Activity
# IGROV-1 [10] = assay: Growth inhibition of human IGROV1 cells incubated for 48 hrs by sulforhodamine B assay; details: IGROV-1, 48 h
# MOLT-4 = assay: Growth inhibition of human MOLT4 cells assessed as cell growth at 10^-8 M incubated for 48 hrs by sulforhodamine B assay relative to control; details: MOLT-4, 48 h, read-out: Activity
# T47D = assay: Growth inhibition of human T47D cells assessed as cell growth at 10^-5 M incubated for 48 hrs by sulforhodamine B assay relative to control; details: read-out: Activity
# [11] = read-out: LC50 (the source's name)
# [12] = read-out: pLC50 (the source's name) (converted)
compound,measurement,setting,value
CCS/C(Nc1ccccc1)=C(\C#N)C(=O)Nc1ccc(OC)cc1,growth at 0.1 µM,SW-620,94%
same,growth at 0.01 µM,IGROV-1 [1],103%
same,growth at 1 µM,OVCAR-4,88%
same,GI50,SNB-19; read-out: GI50,3.55 µM
same,CC50,SNB-19; [11],> 100 µM
same,TGI,SNB-19; read-out: TGI,> 100 µM
same,GI50,SNB-19; read-out: pGI50 (converted),3.55 µM
same,CC50,SNB-19; [12],> 100 µM
same,TGI,SNB-19; read-out: pTGI,> 100 µM
same,GI50,786-0; read-out: GI50,4.14 µM
same,CC50,786-0; [11],> 100 µM
same,TGI,786-0; read-out: TGI,> 100 µM
same,GI50,786-0; read-out: pGI50 (converted),4.17 µM
same,CC50,786-0; [12],> 100 µM
same,TGI,786-0; read-out: pTGI,> 100 µM
same,growth at 10 µM,RPMI-8226,6%
same,growth at 0.01 µM,M14,102%
same,GI50,UACC-62 [2]; read-out: GI50,2.58 µM
same,CC50,UACC-62 [2]; [11],> 100 µM
same,TGI,UACC-62 [2]; read-out: TGI,> 100 µM
same,GI50,UACC-62 [2]; read-out: pGI50 (converted),2.57 µM
same,CC50,UACC-62 [2]; [12],> 100 µM
same,TGI,UACC-62 [2]; read-out: pTGI,> 100 µM
same,growth at 0.1 µM,UACC-62 [3],93%
same,growth at 0.01 µM,NCI-H23,97%
same,growth at 10 µM,OVCAR-3 [4],-6%
same,GI50,HL-60(TB) [5]; read-out: GI50,2.87 µM
same,CC50,HL-60(TB) [5]; [11],> 100 µM
same,TGI,HL-60(TB) [5]; read-out: TGI,> 100 µM
same,GI50,HL-60(TB) [5]; read-out: pGI50 (converted),2.88 µM
same,CC50,HL-60(TB) [5]; [12],> 100 µM
same,TGI,HL-60(TB) [5]; read-out: pTGI,> 100 µM
same,Activity,HL-60,16.32%
same,GI50,OVCAR-3 [6]; read-out: GI50,2.61 µM
same,CC50,OVCAR-3 [6]; [11],> 100 µM
same,TGI,OVCAR-3 [6]; read-out: TGI,8.59 µM
same,GI50,OVCAR-3 [6]; read-out: pGI50 (converted),2.63 µM
same,CC50,OVCAR-3 [6]; [12],> 100 µM
same,TGI,OVCAR-3 [6]; read-out: pTGI (converted),8.51 µM
same,growth at 1 µM,ACHN,90%
same,growth at 100 µM,SF-268,11%
same,growth at 100 µM,BT-549,12%
same,growth at 10 µM,A498,9%
same,growth at 0.01 µM,SNB-75,94%
same,Activity,MDA-MB-435,1.63%
same,growth at 0.1 µM,HL-60(TB) [7],89%
same,GI50,MDA-MB-231; read-out: GI50,4.14 µM
same,CC50,MDA-MB-231; [11],> 100 µM
same,TGI,MDA-MB-231; read-out: TGI,36.5 µM
same,GI50,MDA-MB-231; read-out: pGI50 (converted),4.17 µM
same,CC50,MDA-MB-231; [12],> 100 µM
same,TGI,MDA-MB-231; read-out: pTGI (converted),36.3 µM
same,GI50,K562 [8]; read-out: GI50,0.436 µM
same,CC50,K562 [8]; [11],> 100 µM
same,TGI,K562 [8]; read-out: TGI,> 100 µM
same,GI50,K562 [8]; read-out: pGI50 (converted),0.437 µM
same,CC50,K562 [8]; [12],> 100 µM
same,TGI,K562 [8]; read-out: pTGI,> 100 µM
same,growth at 0.01 µM,K562 [9],106%
same,growth at 100 µM,UO-31,16%
same,GI50,IGROV-1 [10]; read-out: GI50,5.3 µM
same,CC50,IGROV-1 [10]; [11],> 100 µM
same,TGI,IGROV-1 [10]; read-out: TGI,> 100 µM
same,GI50,IGROV-1 [10]; read-out: pGI50 (converted),5.25 µM
same,CC50,IGROV-1 [10]; [12],> 100 µM
same,TGI,IGROV-1 [10]; read-out: pTGI,> 100 µM
same,growth at 0.01 µM,MOLT-4,97%
same,growth at 10 µM,T47D,25%
